# According to patent US20130109687A1, “METHODS OF TREATING HIV INFECTION: INHIBITION OF DNA DEPENDENT PROTEIN KINASE” (priority 2010, published 2013):
# “Also recorded” adds a separate entry of the source. Peptide text beside a SMILES is read from it. * marks the point of attachment. Cbz = O=C(OCc1ccccc1)*; CH2F = FC*
# Assays:
# 293T cells = test: VPR-induced apoptosis and cell cycle analysis by propidium iodide DNA content in 293T cells; assay type: cell-based, human
# Protocol: (§1) Cell cycle analysis in 293T cells was performed on ethanol-fixed cells using the propidium iodide staining method after transduction with lentiviral vectors encoding wild type or mutant VPR. Cell debris was excluded from the analysis, and the DNA content of cells below the diploid level, sub-G1, was used to calculate the apoptosis rate. The association of VPR with VprBP and DNA-PK was determined by immunoprecipitation. Briefly, whole cell extracts were prepared in lysis buffer and incubated with the relevant antibodies, concentrated on Protein G beads, and analyzed by Western blotting. HIV-1 viral stocks were generated by transfecting 293T cells with the HIV-189.6 wild type and IVPR plasmids followed by propagation in CEMx174 cells as previously described^16. CD4^+ T cells were isolated from elutriated lymphocytes using magnetic bead purification, activated and infected as described in Methods. For siRNA transfections in CD4^+ lymphocytes, isolated CD4 cells were transduced by nucleofection. In some experiments, cells were treated with either DMSO or the DNA-PK inhibitor NU7026 (Sigma) during the infection period. Viability of infected primary CD4^+ T cells was performed using combined staining with Annexin V-APC (BD Pharmigen) and the amine reactive viability dye ViVid (Invitrogen). Flow cytometry was performed with a LSR II cell analyzer.
# CEMX174 cells were cultured in RPMI with 10% FBS and antibiotics (penicillin and streptomycin). HEK293T cells were cultured in DMEM supplemented with 10% FBS and antibiotics (penicillin and streptomycin). For immunoprecipitation experiments HEK293T cells were transfected with 3 μg of either […] or 102-HAVpr Q65R using the LipofectAMINE 2000 reagent (Life Technologies, Inc.). For cell cycle analysis HEK293T cells were harvested, washed with ice-cold PBS and resuspended in 70% cold ethanol while vortexing. The cells were incubated at −20° C. overnight, washed once with PBS and resuspended in PBS containing 25 μg/ml propidium iodide and 100 μg/ml RNaseA for 15 minutes at 25° C. Stained cells were then analyzed by flow cytometry.
# Lentivirus vectors were produced by transiently transfecting HEK293T cells using the calcium phosphate method. […]. Virus supernatants were collected at 48 h post transfection. The harvested supernatants were cleared by centrifugation, concentrated and frozen at −80° C. for storage.
# HIV-189.6 = test: Frequency of infection by p24 positivity, flow cytometry; assay type: cell-based, HIV-1; details: primary CD4+ lymphocytes, wild type HIV-189.6; NU7026 vs DMSO
# Protocol: Purified, activated CD4^+ T cells were infected 2-3 days after isolation. For nucleofected cells, infection was done 36 h after nucleofection. HIV-1 infection of CD4^+ T lymphocytes was performed in 96-well round-bottomed culture plates by combining 10 μl virus stock with 150 μl CD4^+ T lymphocytes (1.5×10^5 cells). The multiplicity of infection was ˜1.0. CD4^+ T lymphocytes were harvested at the indicated times following exposure to virus.
# CD4^+ T lymphocytes were harvested for Annexin V, Vivid and intracellular p24-Gag staining at the indicated times following exposure to virus. In brief, the cells were washed and stained with Annexin V-APC (BD Pharmigen) and Vivid (Invitrogen) for 20 min. Cells were washed once, fixed, and permeabilized with Cytoperm/Cytofix (BD Pharmingen) for 20 min. Cells were then stained for p24 Gag (KC-57 fluorescein isothiocyanate (FITC); Coulter) for 30 min and washed once in 1× Perm/wash buffer (BD Pharmingen). Flow cytometry was performed with an LSR II cell analyzer (Becton Dickinson), and data analysis was performed with FlowJo software (Tree Star, Inc.)
# [1] = test system: primary human CD4+ T cells infected with HIV-189.6; test: Viability (Annexin V / ViVid) of primary CD4+ T cells infected with HIV-189.6; assay type: cell-based; details: primary CD4+ lymphocytes, wild type HIV-189.6; NU7026 vs DMSO vehicle; 6 days after infection
# Protocol: as §1, with “For siRNA transfections in CD4^+ lymphocytes, isolated CD4 cells were transduced by nucleofection. In some experiments, cells were treated with either DMSO or the DNA-PK inhibitor NU7026 (Sigma) during the infection period. Viability of infected primary CD4^+ T cells was performed using combined staining with Annexin V-APC (BD Pharmigen) and the amine reactive viability dye ViVid (Invitrogen). Flow cytometry was performed with a LSR II cell analyzer.” left out
# CD4^+ T lymphocytes were isolated from elutriated lymphocytes prepared from blood of healthy donors by negative selection with a CD4^+ T-cell isolation kit II (Miltenyi Biotech) according to the manufacturer's instructions. The purity of the isolated CD4^+ T cells was assessed by fluorescence-activated cell sorting (FACS) analysis for CD4 (BD-Pharmingen) and 95% of the cells were CD4^+ upon isolation. […]
# DNA-PK = target: T1, DNA-PK (Homo sapiens, UniProt P78527); test: Western blot of γH2AX (H2AX phosphorylation) in cells transfected with VPR-encoding plasmid; assay type: cell-based; details: indicated concentrations of inhibitor (FIG. 2d)
# T1 construct: endogenous in cells; host or cells: HEK293T (inferred; only VPR is transfected, DNA-PK is the cells' own)
# Protocol: FIG. 2d, VPR induction of DNA-PKcs autophosphorylation (left, lanes 1,2) and Western blot analysis of γH2AX from cells transfected with a VPR-encoding plasmid and treated with the indicated concentrations of DNA-PK inhibitor NU7026 (right, lanes 3-7). Western blot analysis of autophosphorylated DNA-PKcs was performed using anti-phosphoserine 2056 DNA-PKcs from cells transfected with an empty vector or a VPR-encoding plasmid. Cell lysates were subjected to Western blotting using the indicated antibodies.
# Cell extracts for Western blots and immunoprecipitations were made in cell lysis buffer (Cell Signal). Immunoprecipitations were performed overnight at 4° C. using normal rabbit serum, anti-VprBP or anti-DNA-PK polyclonal antibodies (Bethyl Laboratories). Protein G beads (Invitrogen) were then added for 2 h, washed three times with 1× lysis buffer, boiled and loaded onto 4-15% polyacrylamide Tris Glycine gels (BioRad). The primary antibodies used for Western blotting were anti-DNA-PK, anti-VprBP (Bethyl Laboratories), anti-actin (Sigma), anti-γH2AX (Cell Signaling), anti-HA (Santa Cruz Biotechnology), anti-Ku70, and anti-Ku80 (BD Transduction Laboratories).
# [2] = 293T cells transduced with VPR lentiviral vector, NU7026 10 μM vs DMSO, 72 h after transduction
# [3] = 293T cells transduced with lentiviral vector encoding wild type VPR, 100 μM Z-VAD-fmk vs DMSO
Compound,G2/M cell cycle arrest (293T cells; [2]),VPR-induced apoptosis (293T cells; [2]),"frequency of infection, p24 positivity (HIV-189.6)",direct cell killing by the virus (cell death following HIV infection) [1],VPR induced H2AX phosphorylation (DNA-PK),G2/M blockade (293T cells; [3]),VPR-induced apoptosis (293T cells; [3])
O=c1cc(N2CCOCC2)oc2c1ccc1ccccc12 [NU7026],without diminishing,alleviated,remained unchanged,profoundly diminished; also recorded: substantial reduction,diminished by this DNA-PK inhibitor in a dose-dependent manner,–,–
COC(=O)C[C@H](NC(=O)[C@H](C)NC(=O)[C@@H](NC(=O)OCc1ccccc1)C(C)C)C(=O)CF [zVAD-fmk] (Cbz-Val-Ala-Asp(OMe)-CH2F),–,–,–,–,–,did not reverse,significantly reduced
